Results published in patent US9556153B1, “JAK1 inhibitors” (Eli Lilly and Company, priority 2015, dated 2017).

Assays:
[1] = target: JAK1 (Homo sapiens, UniProt P23458); experiment: Phospho-STAT3 (Tyr705) ACUMEN H1975-JAK1 cell-based assay; parameters: endogenous in cells; conditions: H1975 NSCLC cells, 4 hr; n=1; read-out: IC50, pSTAT3 (Tyr705) in H1975 cells
Method: Phospho-STAT3 (Tyr705) ACUMEN Protocol—H1975-JAK1 Cell-Based Assay
An H1975-JAK1 cellular assay is used to confirm the potency of test compounds in NSCLC cells in which the STAT3 pathway is activated by autocrine IL-6 loop. […]
On Day 2, perform the following steps sequentially: wash 2 times with 100 μL PBS; add 50 μL of secondary antibody (1:1000; Ab2° goat anti-mouse IgG); incubate for 1 hour at RT in the dark; wash 2 times with 100 μL PBS; add 100 μL of Propidium Iodide (1:1000 in PBS from commercial solution) containing RNAse (50 μg/mL in PBS); seal plates with transparent film and incubate at RT for 2 hours before reading; read on Acumen Explorer (set parameter based on positive and negative well). […]

[2] = target: JAK2 (Homo sapiens, UniProt O60674); experiment: Human whole blood assay: pSTAT5 (JAK2) in monocytes; assay type: cell-based; parameters: endogenous in cells; host or cells: human whole blood, CD4Low CD33Hi monocytes; conditions: HWB, GM-CSF stimulated, CD4Low CD33Hi monocytes; n=3
Description: Human Whole Blood Assays: Determination of pSTAT3 (JAK1) and pSTAT5 (JAK2) in Lymphocytes and Monocytes
Human whole blood (HWB) assays were developed and validated to determine the JAK1 and JAK2 selectivity of test compounds.
Dilute the test compounds, 10 points, (1:3) in DMSO 100% and a step down in PBS+0.1% BSA. Use tofacitinib as a reference compound in each plate, as well as a maximum signal (stimulated wells) and a minimum signal (no stimulated wells) in order to normalize data. Obtain a pool of HWB from 4 different healthy donors. Plate the blood in a 96 well plate using a Tecan Evo 96w and incubate with test compounds for 1 h at RT. After this time of incubation, stimulate HWB with both IL6 (206-IL, R&D System) and GM-CSF (PHC2015, Life Technologies) for 15 more minutes. […]
The final concentrations in the assay are the following: 100 μM for compounds, 50 μM for tofacitinib, 0.1 μg/mL IL6, 0.038 μg/mL GM-CSF and 1% DMSO. […] Incubate the antibodies for 1 h in dark at RT, then wash cells 2× and read on Cytometer Macsquant (Miltenyi Biotec). Gate the data on CD4+(lymphocytes) and CD4Low CD33Hi (monocytes), to measure the fluorescence from cells expressing pSTAT3 and pSTAT5 respectively. Analyze the data using FlowJo v_10 and the normalize the median of fluorescence versus maximum and minimum signal to determine the IC50s. […]

Chain of JAK1 (P23458 whole entry): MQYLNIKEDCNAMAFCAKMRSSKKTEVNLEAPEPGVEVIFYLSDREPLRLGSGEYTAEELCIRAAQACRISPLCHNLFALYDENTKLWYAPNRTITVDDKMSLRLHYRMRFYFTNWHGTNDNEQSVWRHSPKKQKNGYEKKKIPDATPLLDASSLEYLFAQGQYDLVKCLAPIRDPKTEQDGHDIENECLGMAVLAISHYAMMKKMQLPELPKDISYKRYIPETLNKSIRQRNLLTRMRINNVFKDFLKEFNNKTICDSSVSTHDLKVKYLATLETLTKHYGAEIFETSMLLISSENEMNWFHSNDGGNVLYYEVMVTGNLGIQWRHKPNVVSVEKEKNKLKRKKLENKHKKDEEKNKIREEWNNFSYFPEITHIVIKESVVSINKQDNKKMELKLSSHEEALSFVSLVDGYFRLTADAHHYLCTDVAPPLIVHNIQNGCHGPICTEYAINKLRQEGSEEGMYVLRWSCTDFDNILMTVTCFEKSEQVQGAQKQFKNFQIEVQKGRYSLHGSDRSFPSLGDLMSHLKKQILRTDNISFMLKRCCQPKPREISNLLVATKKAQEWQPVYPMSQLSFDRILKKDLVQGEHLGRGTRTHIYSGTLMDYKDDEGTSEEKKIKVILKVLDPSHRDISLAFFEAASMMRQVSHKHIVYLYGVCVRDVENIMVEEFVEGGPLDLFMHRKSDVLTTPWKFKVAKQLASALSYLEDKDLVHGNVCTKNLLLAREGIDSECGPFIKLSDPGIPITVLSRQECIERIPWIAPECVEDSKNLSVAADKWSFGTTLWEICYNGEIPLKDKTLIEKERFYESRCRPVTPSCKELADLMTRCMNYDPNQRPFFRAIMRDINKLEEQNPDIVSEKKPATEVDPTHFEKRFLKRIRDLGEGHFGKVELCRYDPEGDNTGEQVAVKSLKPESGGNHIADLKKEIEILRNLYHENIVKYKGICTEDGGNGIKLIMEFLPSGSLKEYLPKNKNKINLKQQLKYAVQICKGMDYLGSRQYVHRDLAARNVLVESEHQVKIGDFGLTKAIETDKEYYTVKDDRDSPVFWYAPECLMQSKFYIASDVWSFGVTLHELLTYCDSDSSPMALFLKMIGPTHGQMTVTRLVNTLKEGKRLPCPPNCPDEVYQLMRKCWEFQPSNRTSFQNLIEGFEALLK
Chain of JAK2 (O60674 whole entry): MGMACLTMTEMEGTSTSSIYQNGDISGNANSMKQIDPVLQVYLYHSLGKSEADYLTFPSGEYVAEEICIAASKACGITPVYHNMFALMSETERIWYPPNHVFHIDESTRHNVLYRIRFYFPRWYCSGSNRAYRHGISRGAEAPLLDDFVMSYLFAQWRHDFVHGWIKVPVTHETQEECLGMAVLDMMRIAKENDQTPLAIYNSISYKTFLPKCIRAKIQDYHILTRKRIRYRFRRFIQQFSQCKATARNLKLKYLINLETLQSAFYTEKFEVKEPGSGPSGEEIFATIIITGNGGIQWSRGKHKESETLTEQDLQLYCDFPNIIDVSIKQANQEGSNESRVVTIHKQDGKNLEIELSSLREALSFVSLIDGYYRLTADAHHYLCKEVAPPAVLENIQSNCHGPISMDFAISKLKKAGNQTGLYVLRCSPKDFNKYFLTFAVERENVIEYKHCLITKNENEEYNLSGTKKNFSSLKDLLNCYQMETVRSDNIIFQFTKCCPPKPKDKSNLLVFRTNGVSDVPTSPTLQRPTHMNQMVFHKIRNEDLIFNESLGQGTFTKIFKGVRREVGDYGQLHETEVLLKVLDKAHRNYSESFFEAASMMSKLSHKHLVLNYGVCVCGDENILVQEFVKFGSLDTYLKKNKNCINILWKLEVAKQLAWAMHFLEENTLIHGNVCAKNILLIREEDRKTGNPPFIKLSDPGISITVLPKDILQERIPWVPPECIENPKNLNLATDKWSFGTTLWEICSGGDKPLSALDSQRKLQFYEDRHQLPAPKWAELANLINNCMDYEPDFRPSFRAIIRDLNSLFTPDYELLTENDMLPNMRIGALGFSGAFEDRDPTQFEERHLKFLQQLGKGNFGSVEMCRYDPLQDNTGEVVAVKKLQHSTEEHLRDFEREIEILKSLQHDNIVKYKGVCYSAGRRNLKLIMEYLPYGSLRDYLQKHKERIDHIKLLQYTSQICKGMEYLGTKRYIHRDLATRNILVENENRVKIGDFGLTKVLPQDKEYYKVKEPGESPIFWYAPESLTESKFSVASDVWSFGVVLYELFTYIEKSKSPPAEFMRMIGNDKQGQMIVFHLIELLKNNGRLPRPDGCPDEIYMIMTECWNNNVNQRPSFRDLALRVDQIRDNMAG

IC50 [1]: 0.297 µM | IC50 [2]: 13 ± 3.2 µM
Structure (SMILES): Cc1cc(Nc2cc(O[C@H]3CC[C@@H](NC[C@@H](O)C(F)(F)F)CC3)cc3c2ncn3C)nn1C [Example 1, (2R)-3-{[cis-4-({4-[(1,5-Dimethyl-1H-pyrazol-3-yl)amino]-1-methyl-1H-benzimidazol-6-yl}oxy)cyclohexyl]amino}-1,1,1-trifluoropropan-2-ol]
